# Reference: PubChem BioAssay (NCI)
#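 Interpolation was linear, between the two tested concentrations surrounding the appropriate level; five concentrations were tested over 48 hours in 96-well plates. GI50 is the concentration that inhibits growth by half. TGI is the concentration that stops growth completely.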
# How the values were obtained:
# Experiment in all cases: growth of human tumour cells (NCI), 48 h
# [1] = test system: OVCAR-5 ovarian
# [2] = test system: NCI/ADR-RES ovarian
# [3] = test system: OVCAR-8 ovarian
# [4] = test system: CAKI-1 renal
# [5] = test system: SF-295 CNS
# [6] = test system: HOP-92 NSCLC
# [7] = test system: K-562 leukemia
# [8] = test system: SNB-75 CNS
# [9] = test system: TK-10 renal
# [10] = test system: BT-549 breast
Compound,GI50 [1],TGI [1],GI50 [2],TGI [2],GI50 [3],TGI [3],GI50 [4],TGI [4],GI50 [5],TGI [5],GI50 [6],TGI [6],GI50 [7],TGI [7],GI50 [8],TGI [8],GI50 [9],TGI [9],GI50 [10],TGI [10]
Cc1ccc(C)c2c1C(O)(C#Cc1ccccc1)c1ccccc1C2(O)C#Cc1ccccc1 (stereo not given),8.39 µM,> 100 µM,3.63 µM,> 28.9 µM,3.82 µM,> 100 µM,2.38 µM,> 30.7 µM,2.91 µM,> 100 µM,2.29 µM,> 27.3 µM,4.4 µM,> 100 µM,4.04 µM,> 100 µM,3.68 µM,> 100 µM,–,–
COc1ccc(S(=O)(=O)Nc2ccccc2C(=O)O)cc1,–,> 100 µM,–,–,–,> 100 µM,–,> 100 µM,–,> 100 µM,–,> 100 µM,–,> 100 µM,–,> 100 µM,–,> 100 µM,–,–
CCOC(=O)C1N(S(=O)(=O)c2ccc(C)cc2)CCC12c1ccccc1N(C(C)=O)C2c1ccc(OC)c(OC)c1 (stereo not given),–,> 100 µM,–,–,–,> 100 µM,–,> 100 µM,–,> 100 µM,–,> 100 µM,–,> 100 µM,–,> 100 µM,–,> 100 µM,–,–
CCCCCC[N+](C)(C)Cc1ccc(C[N+](C)(C)CCCCCC)cc1,–,24.7 µM,–,–,–,7.37 µM,–,14.6 µM,–,10.5 µM,–,7.17 µM,–,5.65 µM,–,10.8 µM,–,24.3 µM,–,–
CC(C)=CC(=O)C/C(=N\NC(N)=S)C(=O)Nc1ccc(Cl)cc1,–,> 100 µM,–,–,–,> 100 µM,–,> 100 µM,–,> 100 µM,–,–,–,> 100 µM,–,> 100 µM,–,> 100 µM,–,–
COC(=O)/C=C1/CCC(C(=O)OC)N1 (stereo not given),–,–,–,–,–,> 100 µM,–,> 100 µM,–,> 100 µM,–,> 100 µM,–,> 100 µM,–,> 100 µM,–,> 100 µM,–,–
c1cc(N(CCn2cccn2)CCn2cccn2)cc(N(CCn2cccn2)CCn2cccn2)c1,–,–,–,–,–,> 100 µM,–,> 100 µM,–,> 100 µM,–,> 100 µM,–,> 100 µM,–,> 100 µM,–,> 100 µM,–,–
COC(=O)N(C(=O)OC)C(C(=O)O)C(C)C (stereo not given),–,> 100 µM,–,–,–,> 100 µM,–,> 100 µM,–,> 100 µM,–,> 100 µM,–,–,–,> 100 µM,–,> 100 µM,–,–
Cc1[nH]c2ccccc2c1C(=O)CC1(O)C(=O)Nc2ccccc21 (stereo not given),–,> 100 µM,–,–,–,–,–,> 100 µM,–,> 100 µM,–,> 100 µM,–,> 100 µM,–,> 100 µM,–,> 100 µM,–,–
C=C(COC(C)=O)CC(OC(C)=O)c1ccccc1 (stereo not given),–,> 100 µM,–,–,–,> 100 µM,–,–,–,> 100 µM,–,> 100 µM,–,> 100 µM,–,> 100 µM,–,> 100 µM,–,–
CCC[CH2][Sn]1([CH2]CCC)[O]CC(Cc2ccccc2)[O]1 (stereo not given),11.2 µM,23.3 µM,–,–,2.61 µM,6.59 µM,1.51 µM,4.45 µM,2.1 µM,6.3 µM,2.9 µM,8.67 µM,1.67 µM,6.64 µM,2.76 µM,7.74 µM,2.64 µM,7.27 µM,–,–
Cc1nc(Nc2ccc(Cl)cc2)sc1C(=O)NNc1ccc([N+](=O)[O-])cc1[N+](=O)[O-],–,30.7 µM,–,–,–,46.5 µM,–,44.1 µM,–,38.5 µM,–,41.4 µM,–,46.1 µM,–,32.5 µM,–,37.2 µM,–,–
Cc1ccc(NC(=O)C2C(=O)N(c3ccc(C)cc3)C(=O)/C2=N\NC(N)=S)cc1 (stereo not given),–,> 100 µM,–,–,–,> 100 µM,–,> 100 µM,–,> 100 µM,–,> 100 µM,–,> 100 µM,–,> 100 µM,–,> 100 µM,–,–
CC[N+](CC)=c1sc2c(s1)C(c1ccc(Cl)cc1)Oc1ccc(Cl)cc1-2 (stereo not given),2.32 µM,6.11 µM,21.6 µM,67.2 µM,1.97 µM,5.41 µM,–,–,1.09 µM,4.64 µM,2.4 µM,5.66 µM,0.917 µM,10.3 µM,0.783 µM,10.6 µM,3.38 µM,6.61 µM,0.749 µM,2.31 µM
Cc1cc2c(ccc3c(C)cc(=O)oc32)o1,–,> 100 µM,–,–,–,> 100 µM,–,> 100 µM,–,> 100 µM,–,> 100 µM,–,> 100 µM,–,> 100 µM,–,> 100 µM,–,–
CN(C)CC(C)(C)/C(=N\Nc1ccccc1)c1ccccc1,–,> 100 µM,–,–,–,> 100 µM,–,–,–,46.4 µM,–,–,–,> 100 µM,–,> 100 µM,–,61.1 µM,–,–
C=C1C(=O)O[C@@H]2C[C@@H](C)[C@@H]3C=CC(=O)[C@@]3(C)[C@@H](OC(=O)CC(=O)O[C@H]3[C@@H]4C(=C)C(=O)O[C@@H]4C[C@@H](C)[C@@H]4C=CC(=O)[C@]43C)[C@H]12,–,0.39 µM,–,–,–,0.0591 µM,–,0.111 µM,–,0.302 µM,–,0.0746 µM,–,< 0.0322 µM,–,1.54 µM,–,0.47 µM,–,0.161 µM
Nc1ccccc1C(=O)CC1OC(=O)c2ccccc21 (stereo not given),–,> 100 µM,–,> 100 µM,–,> 100 µM,–,–,–,> 100 µM,–,> 100 µM,–,> 100 µM,–,> 100 µM,–,> 100 µM,–,90.5 µM
Cc1ccc(-c2csc(/N=C3\C(=O)Nc4ccccc43)n2)cc1,1.93 µM,4.57 µM,20.7 µM,> 100 µM,2.47 µM,6.9 µM,–,–,1.32 µM,2.87 µM,1.24 µM,3.29 µM,1.73 µM,> 100 µM,1.17 µM,2.85 µM,2.52 µM,5.15 µM,1.49 µM,3.06 µM
CCc1cccc(C)c1NC(=O)c1sc2nc3c(cc2c1N)CCCCC3,7.74 µM,> 100 µM,2.36 µM,14.1 µM,3.72 µM,> 100 µM,–,–,3.05 µM,> 100 µM,13.3 µM,60.3 µM,–,–,1.79 µM,51.5 µM,13.4 µM,> 100 µM,5.18 µM,54.9 µM
